Like-named read-outs stand apart in the source and are kept apart here.
Key:
Wnt signaling = experiment: TopFlash reporter gene bioassay in SW480 cells; type: cell-based; settings: Homo sapiens
Experimental: Inhibition activity against Wnt signaling was measured by the TopFlash reporter. The lower IC50 value means the higher inhibition activity.
TopFlash reporter gene Bioassay for the measurement of IC50 against SW480 cells
The test compound (Compound A) used in this example was prepared in Preparation Example 2. SW480 cells were transfected with the usage of Superfect™ transfect reagent (Qiagen, 301307). Cells were trypsinized briefly 1 day before transfection and plated on 6 well plate (5×10^5 cells/well) so that they were 50-80% confluent on the day of transfection.
Four microgram (TopFlash) and one microgram (pRL-null) of DNAs were diluted in 150 μl of serum-free medium, and 30 μl of Superfect™ transfect reagent was added. The DNA-Superfect mixture was incubated at room temperature for 15 min, and then, 1 ml of 10% FBS DMEM was added to this complex for an additional 3 hours of incubation. While complexes were forming, cells were washed with PBS twice without antibiotics.
The DNA-Superfect™ transfect reagent complexes were applied to the cells before incubating at 37° C. at 5% CO2 for 3 hours. After incubation, recovery medium with 10% FBS was added to bring the final volume to 1.18 ml. After 3 hours incubation, the cells were harvested and reseeded to a 96 well plate (3×10^4 cells/well). After overnight incubation at 37° C. at 5% CO2, the cells were treated with Compound A for 24 hours. […]

[1] = target: T1, cDNA-expressed human hepatic CYP3A4 (Homo sapiens, UniProt P08684); experiment: P450 CYP3A4 inhibitory activity screening (fluorescent assay, BFC substrate); type: in vitro ADME
T1 construct: purchased BD Gentest 456202
Experimental: Assay was conducted in a 200 μL volume in 96-well microtiter plates using cDNA-expressed human hepatic CYP3A4 (supersome, BD Gentest™ #456202). 7-Benzyloxy-4-trifluoromethyl-coumarin (BFC) was used as a substrate for CYP3A4. Test articles and substrate BFC were dissolved in 100% acetonitrile. The final volume of acetonitrile in the incubation mixture was less than 1% (volume/volume). Potassium phosphate buffer (pH 7.4, final concentration 0.1 M), MgCl2 (final concentration 8.3 mM), EDTA (final concentration 1.67 mM), a test article stock solution, a CYP3A4 supersome and NADPH (final concentration 0.25 mM) were added to each well. The reaction was initiated by the addition of substrate (BFC, final concentration 30 µM) after a 10 min pre-incubation at 37° C. After 10 min incubation at 37° C., the reaction was terminated by the addition of […] of acetonitrile:0.5 M Tris-base=4:1 (volume/volume). Thereafter, Fluorescent signal was measured using a fluorometer. BFC metabolite, 7-hydroxy-4-trifluoromethyl-coumarin, was measured using an excitation wavelength of 409 nm and an emission wavelength of 530 nm.

MV-4-11 cells = experiment: Cell growth inhibition assay on AML cancer cells; type: cell-based; settings: Homo sapiens, MV4-11, 72 hours
Experimental: Cell growth Inhibition assay was performed to investigate the rate of inhibition of cell proliferation by the test compounds. MV-4-11 (human, Acute Myeloid Leukemia cell line) cells were cultured in Iscove's modified Dulbecco's medium (IMDM) including 10% fetal bovine serum (FBS), 1× penicillin/streptomycin (10,000 units/ml Penicillin, […] Streptomycin in 0.85% NaCl). MV-4-11 cells were harvested with IMDM medium and 5×10^4 cells/well were transferred to each well of 96 well culture plates (Nunc, #167008). The test compounds were treated with the serial dilution and duplicated for each concentration. For the serial dilution, the test compounds were repeatedly diluted with the same volume of media onto 96-well assay block (costar, #3956). After the dilution, each compound was added to each well. The background absorbance was also measured during the test compounds treatment by adding the IMDM media in replacement of test compound to the negative control plate. The plates were incubated for 3 days (72 hours) at 37° C. in the humidified incubator containing 5% CO2. On the last day, 20 μL of CellTiter 96 Aqueous One Solution (Promega #G3581) was added to the culture in each well and the plates were incubated for a few hours at 37° C. in the humidified incubator containing 5% CO2. After the incubation, the absorbance of each cell was measured at 490 nm using an EnVision (Perkinelmer, USA). The […] values were calculated using a Prism 3.0 program.

[2] = MV-4-11 cells, FIG. 4, read-out: GI50
[3] = fluorescent assay, read-out: CYP3A4 inhibition, IC50 (μM) fluorescent assay
[4] = MV-4-11 AML cells, read-out: MV-4-11, GI50

T1 sequence (P08684 whole entry): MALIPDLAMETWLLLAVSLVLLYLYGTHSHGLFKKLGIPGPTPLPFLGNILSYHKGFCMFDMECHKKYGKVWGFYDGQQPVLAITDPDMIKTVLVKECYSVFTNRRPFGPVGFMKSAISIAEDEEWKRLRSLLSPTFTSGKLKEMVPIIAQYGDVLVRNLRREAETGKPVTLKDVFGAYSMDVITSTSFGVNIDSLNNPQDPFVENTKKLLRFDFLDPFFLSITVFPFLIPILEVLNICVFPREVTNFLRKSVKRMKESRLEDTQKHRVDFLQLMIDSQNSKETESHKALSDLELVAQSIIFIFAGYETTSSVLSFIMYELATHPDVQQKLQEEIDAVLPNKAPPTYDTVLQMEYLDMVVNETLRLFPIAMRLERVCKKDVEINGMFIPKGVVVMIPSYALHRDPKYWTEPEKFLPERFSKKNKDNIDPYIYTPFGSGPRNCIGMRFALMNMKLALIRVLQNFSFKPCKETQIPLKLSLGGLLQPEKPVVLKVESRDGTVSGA

SMILES	IC50 [1, 3] [µM]	GI50 (MV-4-11 cells; [4]) [nM]	other results
C=CCN1CC(=O)N2[C@@H](Cc3ccc(O)cc3)C(=O)N(Cc3ccc4nn(C)nc4c3)C[C@@H]2N1C(=O)NCc1ccccc1 [Compound A, 2-allyl-6-(4-hydroxy-benzyl)-8-(2-methyl-2H-benzotriazol-5-ylmethyl)-4,7-dioxo-hexahydro-pyrazino[2,1-c][1,2,4]triazine-1-carboxylic acid benzylamide]			IC50 (Wnt signaling; SW480 cells, TopFlash, 24 hours treatment, FIG. 3, read-out: IC50 of Compound A for SW480 cells): 1 ± 0.254 µM; inhibition of a CYP3A4 enzyme (in words) ([1]; FIG. 2): weak inhibition; IC50 ([1]; Table 6, FIG. 2, read-out: IC50 against CYP3A4 activity): 19.2 µM; GI50 (MV-4-11 cells; [2]): 262 nM
C=CCN1CC(=O)N2[C@@H](Cc3ccc(O)cc3)C(=O)N(Cc3cccc4c3nnn4CC(N)=O)C[C@@H]2N1C(=O)NCc1ccccc1 [Compound C]			GI50 (MV-4-11 cells; [2]): 560 nM
C=CCN1CC(=O)N2[C@@H](Cc3ccc(O)cc3)C(=O)N(Cc3ccc4nn(C)nc4c3)C[C@@H]2N1C(=O)NCc1ccccc1 [compound 1]	19.2	260	IC50 (Wnt signaling; SW480, TopFlash reporter gene assay, read-out: RGA, IC50 (μM) TopF): 1 ± 0.25 µM
C=CCN1CC(=O)N2[C@@H](Cc3ccc(O)cc3)C(=O)N(Cc3cccc4c3nnn4CC(=O)OCC)C[C@@H]2N1C(=O)NCc1ccccc1 [compound 5]	7.4		
C=CCN1CC(=O)N2[C@@H](Cc3ccc(O)cc3)C(=O)N(Cc3cccc4nnn(CC(=O)N5CCN(C)CC5)c34)C[C@@H]2N1C(=O)NCc1ccccc1 [compound 5]		2970	
C=CCN1CC(=O)N2[C@@H](Cc3ccc(O)cc3)C(=O)N(Cc3cccc4c3nnn4CC(=O)OCC)C[C@@H]2N1C(=O)NCc1ccccc1 [compound 6]		650	
C=CCN1CC(=O)N2[C@@H](Cc3ccc(O)cc3)C(=O)N(Cc3cccc4c3nnn4CC(=O)N3CCOCC3)C[C@@H]2N1C(=O)NCc1ccccc1 [compound 7]		370	
C=CCN1CC(=O)N2[C@@H](Cc3ccc(O)cc3)C(=O)N(Cc3cccc4c3nnn4CC(=O)N(C)C)C[C@@H]2N1C(=O)NCc1ccccc1 [compound 9]	38		
C=CCN1CC(=O)N2[C@@H](Cc3ccc(O)cc3)C(=O)N(Cc3cccc4c3nnn4CC(N)=O)C[C@@H]2N1C(=O)NCc1ccccc1 [compound 12]		560	
C=CCN1CC(=O)N2[C@@H](Cc3ccc(O)cc3)C(=O)N(Cc3cccc4c3nnn4CC(=O)NC)C[C@@H]2N1C(=O)NCc1ccccc1 [compound 13]	32.4		
C=CCN1CC(=O)N2[C@@H](Cc3ccc(O)cc3)C(=O)N(Cc3cccc4c3nnn4CC(=O)NCc3ccncc3)C[C@@H]2N1C(=O)NCc1ccccc1 [compound 14]		600	
C=CCN1CC(=O)N2[C@@H](Cc3ccc(O)cc3)C(=O)N(Cc3cccc4c3nnn4CC(=O)NC)C[C@@H]2N1C(=O)NCc1ccccc1 [compound 15]		180	

The next lines start with results.

IC50 [1, 3] [µM]	GI50 (MV-4-11 cells; [4]) [nM]	SMILES	other results
> 50		C=CCN1CC(=O)N2[C@@H](Cc3ccc(O)cc3)C(=O)N(Cc3cccc4nnn(CC(=O)O)c34)C[C@@H]2N1C(=O)NCc1ccccc1 [compound 3]	
	710	C=CCN1CC(=O)N2[C@@H](Cc3ccc(O)cc3)C(=O)N(Cc3cccc4nnn(CC(=O)OCC)c34)C[C@@H]2N1C(=O)NCc1ccccc1 [compound 3]	
6.23	930	C=CCN1CC(=O)N2[C@@H](Cc3ccc(O)cc3)C(=O)N(Cc3cccc4nnn(CC(=O)N5CCOCC5)c34)C[C@@H]2N1C(=O)NCc1ccccc1 [compound 4]	
> 50		C=CCN1CC(=O)N2[C@@H](Cc3ccc(O)cc3)C(=O)N(Cc3cccc4c3nnn4CC(=O)O)C[C@@H]2N1C(=O)NCc1ccccc1 [compound 6]	
41.1		C=CCN1CC(=O)N2[C@@H](Cc3ccc(O)cc3)C(=O)N(Cc3cccc4nnn(CC(=O)N(C)C)c34)C[C@@H]2N1C(=O)NCc1ccccc1 [compound 7]	
	1920	C=CCN1CC(=O)N2[C@@H](Cc3ccc(O)cc3)C(=O)N(Cc3cccc4nnn(CC(=O)N(C)C)c34)C[C@@H]2N1C(=O)NCc1ccccc1 [compound 8]	
46.9		C=CCN1CC(=O)N2[C@@H](Cc3ccc(O)cc3)C(=O)N(Cc3cccc4nnn(CC(=O)NCCOC)c34)C[C@@H]2N1C(=O)NCc1ccccc1 [compound 8]	
	1850	C=CCN1CC(=O)N2[C@@H](Cc3ccc(O)cc3)C(=O)N(Cc3cccc4nnn(CC(=O)NCCOC)c34)C[C@@H]2N1C(=O)NCc1ccccc1 [compound 9]	
33.2		C=CCN1CC(=O)N2[C@@H](Cc3ccc(O)cc3)C(=O)N(Cc3cccc4nnn(CC(N)=O)c34)C[C@@H]2N1C(=O)NCc1ccccc1 [compound 12]	
	3270	C=CCN1CC(=O)N2[C@@H](Cc3ccc(O)cc3)C(=O)N(Cc3cccc4nnn(CC(N)=O)c34)C[C@@H]2N1C(=O)NCc1ccccc1 [compound 13]	

Source: US8071764B2, “Compounds of reverse turn mimetics and the use thereof (2)” (Choongwae Pharma Corporation, priority 2008, dated 2011)
